Reference: publication PMC6423188, “HYNIC and DOMA conjugated radiolabeled bombesin analogs as receptor-targeted probes for scintigraphic detection of breast tumor” (EJNMMI Research, 2019)
Where a SMILES comes first, the peptide text is derived from it.

Legend:
MDA-MB-231 cells = test: Western blot analysis; type: cell-based, human; details: 24 h, BN3, BN4 7.5 and 5 pM, BNS 7.5 pM
Excerpt: After washing in ice-cold PBS, proteins were extracted from cells with lysis buffer containing 100 mmol/L Tris-HCl, pH 8.0, 150 mmol/L NaCl, 1% sodium dodecyl sulfate, 10% glycerol, 1% Triton X, 5 mmol/L ethylenediaminetetraacetic acid, 1 mmol/L phenyl methyl sulfonyl fluoride, 10 mmol/L sodium fluoride, 1 mmol/L sodium orthovanadate, 1 mmol/L-glycerophosphate, and protease inhibitor cocktail tablets (Roche, Switzerland). Total proteins from cell were also extracted by using standard procedure. Protein concentrations were determined by Bradford reagent (BioRad, USA). Extracted proteins were separated by sodium dodecyl sulphate polyacrylamide gel electrophoresis and transferred to polyvinylidene fluoride (PVDF) membranes. Membranes blocking were done by 5% nonfat milk in Tris-buffered saline containing 0.1% polysorbate-20 and incubated with primary antibodies GRPR (Abcam, USA), VEGF, PCNA, Phospho-p38, and HIF-1α (Santa Cruz Biotechnology) for overnight at 4 °C. β-actin antibodies (Millipore) were used to confirm equal protein loading. Detection of primary antibodies was done by alkaline phosphatase conjugated secondary antibodies (1:5000 dilutions) and the detection was done by colorimetry using NBT-BCIP as substrate (Sigma-Aldrich). Detection of GRPR primary antibody was done by horseradish peroxidase conjugated secondary antibodies. The level of β-actin was used as a loading control and was not altered under any of the condition used.

GRPR = target: T1, GRPR (Homo sapiens, UniProt P30550); test: In vitro receptor binding assay, competition with 99mTc-BNS; details: unlabeled analogs, radioligand 99mTc-BNS
T1 construct: endogenous in cells; host or cells: MDA-MB-231 human breast cancer cells (from NCCS, Pune)
T1 sequence (P30550 whole entry): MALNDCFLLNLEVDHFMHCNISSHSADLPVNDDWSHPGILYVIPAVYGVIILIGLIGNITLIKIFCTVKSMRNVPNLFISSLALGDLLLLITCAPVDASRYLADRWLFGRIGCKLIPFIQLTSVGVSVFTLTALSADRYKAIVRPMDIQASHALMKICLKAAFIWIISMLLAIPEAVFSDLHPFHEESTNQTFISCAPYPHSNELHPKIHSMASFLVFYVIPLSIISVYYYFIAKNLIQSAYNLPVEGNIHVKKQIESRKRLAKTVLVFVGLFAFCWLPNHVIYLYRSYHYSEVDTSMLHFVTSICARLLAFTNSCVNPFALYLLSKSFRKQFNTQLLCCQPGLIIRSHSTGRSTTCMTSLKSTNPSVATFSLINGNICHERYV
Method: One day prior to the assay, cells at the confluence were placed in 12-well plates. […] Inhibitory assays were done on GRPR-expressing MDA-MB-231 human breast cancer cells using the standard procedure with modifications. […] After 1-h incubation, cells were washed twice with cold PBS. Receptor bound radioactivity was recovered by solubilizing the cells with 400 μL 1 N NaOH at 37 °C. Binding activities were evaluated in the gamma counter. IC50 (the best-fit 50% inhibitory concentration) values were determined using nonlinear regression.
It may be mentioned that non-radioactive Re complex can be used in place of its unlabeled ligand to determine the binding affinity after complexation reaction. This is being proposed to use the non-radioactive Re complex in place of its unlabeled ligand to determine the binding affinity after complexation in future studies.

MDA-MB-231 tumor = test: Angiogenic and proliferative markers in tumor (IHC); type: in vivo, mouse; details: tumor-bearing mice treated i.v. every day for 2 weeks
Method: Tumor-bearing mice were intravenously treated with BN4 peptide at every day for 2 weeks as BN4 has shown the highest affinity and stability to GRP with compare to other analogs. Mice were sacrificed and tumor tissue sections were used for immunohistochemical (IHC) analyses. IHC was performed by the aforementioned methods with the primary antibodies such as anti-CD31 and anti-Ki67 (Abcam, Cambridge, Massachusetts, USA) to determine the expression of angiogenic and proliferative markers in the tumor.

[1] = GRP receptor expressing MDA-MB-231 cells, values printed in Fig. 4
[2] = MDA-MB-231 cells/membranes, 1 h, 37 °C

| Compound | IC50 (GRPR; [1]) | IC50 (GRPR; [2]) | level of GRPR (Western blot) (MDA-MB-231 cells) | expression of CD31 and Ki67 in tumor sections (IHC) (MDA-MB-231 tumor) |
| --- | --- | --- | --- | --- |
| CCCC[C@H](NC(=O)[C@@H](CC1CCCCC1)NC(=O)[C@H](Cc1c[nH]cn1)NC(=O)[C@H](CCCCN)NC(=O)[C@@H](NC(=O)[C@H](C)NC(=O)[C@H](Cc1c[nH]c2ccccc12)NC(=O)[C@H](CCC(N)=O)NC(=O)[C@H](CC(N)=O)NC(=O)[C@H](CC(=O)O)NC(=O)c1ccc(NN)nc1)C(C)C)C(N)=O [BN3, HYNIC-Asp-Asn-[Lys^5-D-CHAla^13Nle^14]BN(7-14)-NH2] (HELM PEPTIDE1{[NNc1ccc(C(=O)[*:2])cn1].D.N.Q.W.A.V.K.H.[O=C([C@@H](CC1CCCCC1)N[*:1])[*:2]].[Nle].[am]}$$$$V2.0) |  |  | significantly increased level of GRPR |  |
| CSCC[C@H](NC(=O)[C@H](CC(C)C)NC(=O)[C@H](Cc1c[nH]cn1)NC(=O)CNC(=O)[C@@H](NC(=O)[C@H](C)NC(=O)[C@H](Cc1c[nH]c2ccccc12)NC(=O)[C@@H](N)CCC(N)=O)C(C)C)C(N)=O [BNS, reference compound] |  |  | significantly increased level of GRPR |  |

Second part, led by results:

| IC50 (GRPR; [1]) | IC50 (GRPR; [2]) | Compound | level of GRPR (Western blot) (MDA-MB-231 cells) | expression of CD31 and Ki67 in tumor sections (IHC) (MDA-MB-231 tumor) |
| --- | --- | --- | --- | --- |
| 4.47 nM | 3.96 nM | CCCC[C@H](NC(=O)[C@@H](Cc1ccccc1)NC(=O)[C@H](Cc1c[nH]cn1)NC(=O)CNC(=O)[C@@H](NC(=O)[C@H](C)NC(=O)[C@H](Cc1c[nH]c2ccccc12)NC(=O)[C@H](CCC(N)=O)NC(=O)[C@H](CC(=O)O)NC(=O)c1ccc(NN)nc1)C(C)C)C(N)=O [BN1, HYNIC-Asp-[D-Phe^13Nle^14]BN(7-14)NH2] (HELM PEPTIDE1{[NNc1ccc(C(=O)[*:2])cn1].D.Q.W.A.V.G.H.[dF].[Nle].[am]}$$$$V2.0) |  |  |
| 4.63 nM |  | CSCC[C@H](NC(=O)[C@@H](Cc1ccc(O)cc1)NC(=O)[C@H](Cc1c[nH]cn1)NC(=O)CNC(=O)[C@@H](NC(=O)[C@H](C)NC(=O)[C@H](Cc1c[nH]c2ccccc12)NC(=O)[C@H](CCC(N)=O)NC(=O)[C@H](CC(=O)O)NC(=O)[C@@H]1CCCN1C(=O)c1ccc(NN)nc1)C(C)C)C(N)=O [BN2, HYNIC-Pro-Asp-[D-Tyr^13Met^14] BN(7-14)NH2] (HELM PEPTIDE1{[NNc1ccc(C(=O)[*:2])cn1].P.D.Q.W.A.V.G.H.[dY].M.[am]}$$$$V2.0) |  |  |
|  | 3.15 nM | CCCC[C@H](NC(=O)[C@@H](Cc1ccc(O)cc1)NC(=O)[C@H](Cc1c[nH]cn1)NC(=O)[C@@H]1CCCN1C(=O)[C@@H](NC(=O)[C@H](C)NC(=O)[C@H](Cc1c[nH]c2ccccc12)NC(=O)[C@H](CCC(N)=O)NC(=O)CCCNC(=O)CN1CCNCCNCCNCC1)C(C)C)C(N)=O [BN4, DOMA-GABA-[Pro^5-D-Tyr^13Nle^14]-BN(7-14)-NH2] (HELM PEPTIDE1{[O=C(CN1CCNCCNCCNCC1)[*:2]].[O=C(CCCN[*:1])[*:2]].Q.W.A.V.P.H.[dY].[Nle].[am]}$$$$V2.0) | significantly increased level of GRPR | enhanced expression of CD31, Ki67 |
